From patent publication US9445596B2, “Small molecule compounds for the control of nematodes” (California Institute of Technology, priority 2011, dated 2016)
“Also recorded” adds a separate entry of the source.

How the values were obtained:
[1] = test system: P. pacificus strain RSB020; assay: Mouth-form dimorphism assay; assay type: in vivo, Pristionchus pacificus; conditions: high concentrations
Experimental: Mouth-form dimorphism assays were performed using P. pacificus strain RSB020. The synthetic compounds dissolved in ethanol (0.5 mM) were diluted with water to make 100 μl solution and subsequently added to 3 mL NGM-agar (1 μM final concentration). The assay plates were seeded with 50 μl OP50 culture in LB medium and incubated overnight at 20° C. to allow bacterial growth. Each replicate included the progeny of two mothers, which were picked as adult hermaphrodites of a consistent age (carrying 4-6 eggs) and which were all from the same P. pacificus culture plate. Following the placement of mothers on assay plates, plates were kept at 20° C. for six days, such that the entire broods were adults at the time of screening. A random sample of 50 hermaphrodite progeny was screened per plate. All animals were screened by differential interference contrast (DIC) microscopy on a Zeiss Axiskop. The following discrete characters were used to discriminate eurystomatous from stenostomatous individuals, respectively: (1) claw-shaped vs. flint-shaped (i.e. dorsoventrally symmetrical) dorsal tooth; (2) presence vs. absence of a subventral tooth; (3) strongly vs. weakly sclerotized stomatal walls. No intermediate mouth-forms were observed. Experiments were conducted in triplicate for each treatment. In assays of responses to compounds of several concentrations (1, 0.3, 0.1, 0.03, 0.01 μM final concentrations), experiments were performed as described above, with the following modifications. To allow greater resolution of responses to lower concentrations, 60 randomly screened individuals in each of five replicates per concentration per compound were assayed. All concentration-curve experiments were performed in parallel using mothers picked randomly from the same two source populations. To prepare large numbers of individual mothers for these experiments, source populations were established from virgin hermaphrodites to constrain the presence of males and were conditioned to well-fed and ambient conditions for at least one generation before mothers were picked for the assays.

P. pacificus = assay: Dauer formation assay; assay type: in vivo, Pristionchus pacificus; conditions: synthetic samples; first assayed at 1 μM
Experimental: Dauer formation assays were performed as described in Ogawa et al., Curr. Biol. 19:67-71 (2009), which is hereby incorporated by reference in its entirety, using heat- or kanamycin-killed E. coli OP50. Synthetic compounds were dissolved in ethanol (0.5 mM, stock solution) and combined with water to make a […] and subsequently added to 3 mL NGM-agar without peptone ([…], 0.3, 0.1 μM final concentrations).

Q: Which “induction of the eurystomatous mouth form” value [1] does the source give for `C[C@H](CCC(=O)O[C@H](C)[C@H](NC(=O)Nc1ncnc2c1ncn2[C@@H]1OC[C@@H](O)[C@H](O)[C@H]1O)C(=O)O)O[C@@H]1O[C@@H](C)[C@H](O)C[C@@H]1O` [npar#1, (2S,3R)-3-(((R)-4-(((2R,3S,5R,6S)-3,5-dihydroxy-6-methyltetrahydro-2H-pyran-2-yl)oxy)pentanoyl)oxy)-2-(3-(9-((2R,3R,4S,5R)-3,4,5-trihydroxytetrahydro-2H-pyran-2-yl)-9H-purin-6-yl)ureido)butanoic acid] here?
A: The value was “weaker induction of the eurystomatous mouth form”.

Q: And the dauer induction (P. pacificus)?
A: The dauer induction was “induces dauer arrest; also recorded: strongly induced dauer formation”.
